Here are results for 21 compounds from patent EP2027772A1, “Skin-friendly insect repellent” (Beiersdorf AG, priority 2007, dated 2009).

The first series in a line: Octanol/water partition coefficient (log P), shake-flask with UV spectroscopy; alternatively calculated by Hansch and Leo.
Conditions: not given
For `CC(C)(CO)CO` [Neopentanediol, Neopentyleme Glyol], the “Log P-Wert” value is -0,3.

The same series, now with this note: n-Octanol/Wasser.
For the compound `CC(O)CO` (stereo not drawn) [1,2 Propandiol], the “Log P-Wert” value was -1,3.

With `OCCCCO` [Butane-1,4diol, Tetramethylene Glucol], the “Log P-Wert” value is reported as -1.

A short description of a further series: physchem.
Conditions: not given
As usually defined, the logP is a log measure of how a compound divides between an organic and an aqueous phase. Low values mean a more hydrophilic compound, high ones a more lipophilic compound. For `CC(O)CCO` (stereo not drawn) [1,3 Butandiol], the logP is -0.7.

Take `OCCCCCO` [1,5 Pentandiol]: the lipophilicity (logP) is -0.6.

Take `OCCCCCCO` [1,6 Hexandiol]: the logP is -0.1.

Take `OCC(CO)(CO)CO` [2,2 Bishydroxymethyl 1,3 Propanediol]: the logP was -2.4.

Regarding `CCC(CO)(CO)CO` [2-Ethyl-2-Hydroxymethyl 1,3 Propandiol], the log partition coefficient (logP) was -0.8.

Compound `CCCCC(CC)COCC(O)CO` (stereo not drawn) [3-[(2-Ethylhexyl)oxy]-1,2 propandiol] displayed a log partition coefficient (logP) of 2.1.

Staying with this series, now noted: n-octanol/water.
The compound `CCCCCC(O)CO` (stereo not drawn) [1,2 Heptanediol] returned a logP of 1.5.

`CCCCC(O)CO` (stereo not drawn) [1,2 Hexandiol] showed a logP of 1.

On to `CCCCCCCC(O)CO` (stereo not drawn) [1,2 Nonanediol], for which the logP turned out to be 2.5.

The compound `CCCCCCC(O)CO` (stereo not drawn) [1,2 Octandiol] yielded a logP of 1.3.

Regarding `CCCC(O)CO` (stereo not drawn) [1,2 Pentandiol], the logP is -0.3.

Consider `CCCCCC(O)C(O)CO` (stereo not drawn) [1,2,3 Octanetriol], for which the log partition coefficient (logP) came out at 0.15.

For `CCCCCCCCC(O)CO` (stereo not drawn) [1,2-Decandiol], the logP was determined as 2.4.

Consider `COCC(O)COC` [1,3-Dimethoxy-2-propanol], for which the logP is -0.5.

`CC(CO)CO` [2-Methyl-1,3-Propanediol]: the log partition coefficient (logP) was -0.7.

With `CC(O)CC(C)(C)O` (stereo not drawn) [2-Methyl-2,4 Pentandiol], the log partition coefficient (logP) turned out to be 0.

Turning to `CCC(CO)(CO)COCC(CC)(CO)CO` [3,3,7,7 Tetrahydroxymethyl 5 oxanonan], the lipophilicity (logP) was -0.3.

Take `CC(C)(O)CCO` [3-Methyl 1,3 Butanediol]: the logP was -0.3.
